Test results taken from PubChem BioAssay (NCI).
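Tested at 5 concentrations; 48 h exposure; 96-well plates; endpoints linearly interpolated, else capped at highest concentration. TGI denotes the concentration required for complete inhibition of growth.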

Tests used:
Assay in all cases: growth of human tumour cells (NCI), 48 h
RXF 393 renal = system: RXF 393 renal
K-562 leukemia = system: K-562 leukemia
BT-549 breast = system: BT-549 breast
OVCAR-3 ovarian = system: OVCAR-3 ovarian
SK-MEL-28 melanoma = system: SK-MEL-28 melanoma
HS 578T breast = system: HS 578T breast
UO-31 renal = system: UO-31 renal
SK-OV-3 ovarian = system: SK-OV-3 ovarian
SW-620 colon = system: SW-620 colon
NCI/ADR-RES ovarian = system: NCI/ADR-RES ovarian
MALME-3M melanoma = system: MALME-3M melanoma
A498 renal = system: A498 renal
ACHN renal = system: ACHN renal
HCT-15 colon = system: HCT-15 colon
786-0 renal = system: 786-0 renal
SF-268 CNS = system: SF-268 CNS
NCI-H23 lung = system: NCI-H23 lung
OVCAR-4 ovarian = system: OVCAR-4 ovarian
PC-3 prostate = system: PC-3 prostate
IGROV1 ovarian = system: IGROV1 ovarian
OVCAR-5 ovarian = system: OVCAR-5 ovarian
TK-10 renal = system: TK-10 renal
LOX IMVI melanoma = system: LOX IMVI melanoma
SK-MEL-5 melanoma = system: SK-MEL-5 melanoma
MDA-N = system: MDA-N
DU-145 prostate = system: DU-145 prostate
MDA-MB-231 breast = system: MDA-MB-231 breast
MOLT-4 leukemia = system: MOLT-4 leukemia
RPMI-8226 leukemia = system: RPMI-8226 leukemia
UACC-257 melanoma = system: UACC-257 melanoma
KM12 colon = system: KM12 colon
NCI-H460 lung = system: NCI-H460 lung
T-47D breast = system: T-47D breast
HT29 colon = system: HT29 colon
A549 NSCLC = system: A549 NSCLC
OVCAR-8 ovarian = system: OVCAR-8 ovarian
HOP-62 NSCLC = system: HOP-62 NSCLC
NCI-H522 lung = system: NCI-H522 lung
HCT-116 colon = system: HCT-116 colon
UACC-62 melanoma = system: UACC-62 melanoma
SNB-75 CNS = system: SNB-75 CNS
U251 CNS = system: U251 CNS
NCI-H226 lung = system: NCI-H226 lung
COLO 205 colon = system: COLO 205 colon
MCF7 breast = system: MCF7 breast
SF-539 CNS = system: SF-539 CNS
SR leukemia = system: SR leukemia
SK-MEL-2 melanoma = system: SK-MEL-2 melanoma
SF-295 CNS = system: SF-295 CNS
SN12C renal = system: SN12C renal
HOP-92 NSCLC = system: HOP-92 NSCLC
M14 melanoma = system: M14 melanoma
SNB-19 CNS = system: SNB-19 CNS
EKVX NSCLC = system: EKVX NSCLC
CAKI-1 renal = system: CAKI-1 renal
MDA-MB-435 = system: MDA-MB-435
CCRF-CEM leukemia = system: CCRF-CEM leukemia
HCC-2998 colon = system: HCC-2998 colon
HL-60(TB) leukemia = system: HL-60(TB) leukemia

Measured: TGI

CCCCOc1ccc(S(=O)(=O)/N=C(\N)Nc2ccc(Cl)cc2)cc1
29.9 µM: NCI-H23 lung | MOLT-4 leukemia | OVCAR-8 ovarian
23.2 µM: EKVX NSCLC
32.3 µM: RXF 393 renal | SW-620 colon
40.2 µM: HS 578T breast
30.1 µM: SN12C renal
45.8 µM: RPMI-8226 leukemia | A549 NSCLC
33.3 µM: SNB-19 CNS
27.7 µM: ACHN renal
44.4 µM: NCI-H226 lung
32 µM: SK-MEL-28 melanoma
28.5 µM: MALME-3M melanoma
34.8 µM: UO-31 renal
30.4 µM: MDA-N
38 µM: M14 melanoma
> 100 µM: COLO 205 colon
34.3 µM: DU-145 prostate
31.8 µM: OVCAR-3 ovarian
26.9 µM: MCF7 breast
23.7 µM: HOP-92 NSCLC
26.5 µM: OVCAR-4 ovarian
23 µM: NCI-H522 lung
28 µM: U251 CNS
36.1 µM: SF-295 CNS
28.9 µM: IGROV1 ovarian
27.6 µM: HCT-15 colon
29.7 µM: MDA-MB-231 breast
44.2 µM: HOP-62 NSCLC
54.9 µM: SF-539 CNS
31.6 µM: SK-MEL-2 melanoma
36.3 µM: SNB-75 CNS
30.3 µM: HCT-116 colon
24.6 µM: A498 renal
31.5 µM: NCI/ADR-RES ovarian | NCI-H460 lung
32.5 µM: BT-549 breast
31 µM: PC-3 prostate
27.1 µM: UACC-257 melanoma | UACC-62 melanoma
35 µM: SK-OV-3 ovarian
29.1 µM: T-47D breast
37.4 µM: K-562 leukemia
47.8 µM: SK-MEL-5 melanoma
33.2 µM: OVCAR-5 ovarian
30.9 µM: 786-0 renal
35.2 µM: HT29 colon
32.8 µM: LOX IMVI melanoma
39.6 µM: KM12 colon
28.1 µM: TK-10 renal
28.7 µM: SR leukemia
29.3 µM: SF-268 CNS

Cn1c(=O)n2n(c1=O)C(S(=O)c1ccccc1)C2 (configuration not stated)
not listed: MALME-3M melanoma | A498 renal | T-47D breast | NCI-H226 lung | HL-60(TB) leukemia
> 100 µM: all other assays above

C=CC1(O)CCCC=C1COCc1ccccc1 (configuration not stated)
68.3 µM: RPMI-8226 leukemia
35.3 µM: IGROV1 ovarian
40.7 µM: LOX IMVI melanoma
32.4 µM: NCI-H522 lung
72.2 µM: HL-60(TB) leukemia
57 µM: SR leukemia
66.7 µM: MOLT-4 leukemia
not listed: BT-549 breast | OVCAR-3 ovarian | SW-620 colon | SF-539 CNS
> 100 µM: all other assays above

OC1CSCCSCCCSCCSC1
not listed: NCI/ADR-RES ovarian | MALME-3M melanoma | KM12 colon | SR leukemia | CCRF-CEM leukemia
> 100 µM: all other assays above
